Test results: article PMC11505038, “Kalata B1 Enhances Temozolomide Toxicity to Glioblastoma Cells” (Biomedicines, 2024)

How the values were obtained:
[1] = Human serum stability assay (UPLC-MS); conditions: 37 °C
Protocol: Established protocols were used to analyze peptide stability in human serum isolated from male AB plasma (Sigma-Aldrich). Briefly, thawed plasma was centrifuged for 10 min at 15,000× g to concentrate lipids. The supernatant was carefully removed with a Pasteur pipette and incubated for 15 min at 37 °C, 5% CO2. […] Controls were synthetic Kalata B1 or TMZ in PBS that were incubated in parallel with human serum test compounds. Serum proteins were denatured with urea (final concentration of 3M) at 4 °C for 10 min., at each time point. Afterwards, trichloroacetic acid (7% final v/v) was added for 10 min to precipitate the proteins. Each sample was centrifuged for 10 min at 15,000× g; the supernatant was removed an evaluated in triplicate using UPLC-MS.
We conducted peptide stability assays in human serum isolated from male AB plasma and then analyzed with UPLC-MS. Synthetic Kalata B1 and TMZ were incubated with human serum and the portion of the peptide remaining was quantified by calculating the area of the respective elution peak in UPLC-MS, compared to the control.
Percentage of Kalata B1 and TMZ remaining upon incubation with human serum. The portion of serum-treated peptide remaining was determined by calculating the area of the respective elution peak in UPLC-MS and comparing it with the control without incubation. Data points are means ± SEM.

[2] = tested on: T-98G human glioblastoma cells; assay: cells; conditions: read-out: IC50 (μM) ± S.D.; T-98G, MTT, 72 h, 6000 cells/well, best fit nonlinear regression, triplicate wells, n = 3
Protocol: (§1) SH-SY5Y human neuroblastoma cells (population doubling (PD) 20−24), T-98G, and U-87 MG human glioblastoma cells were removed from cryogenic storage, thawed rapidly in a water bath (37 °C) and reconstituted in 75 cm^2 flasks. For SH-SY5Y, the following media were used: Dulbecco’s modified Eagle’s medium/Nutrient F12 Ham (Sigma-Aldrich, Cat. No. D8437) containing 10% heat-inactivated fetal bovine serum, 4 mM L-glutamine, 100 U/mL penicillin, and 100 μg/mL streptomycin. For U-87 MG and T-98G Eagle’s minimal essential medium (ATCC: The Global Bioresource Center, Cat. No. ATCC 30-2003), containing 10% heat-inactivated fetal bovine serum, 4 mM L-glutamine, 100 U/mL penicillin, and 100 μg/mL streptomycin were used.
(§2) Cells were incubated at 37 °C in a humidified atmosphere of 5% CO2 and 95% air until recovered and ready for passaging (approximately 4 days). At between 80% and 90% confluence, the cells were trypsinized with warm (37 °C) sterile 0.5% Trypsin-EDTA (Thermo Fisher, Cat. No. 15400054) and passaged into 175 cm^2 flasks, where they were left to multiply until they reached 80−90% confluence. To plate cells: cultures were trypsinized, resuspended in 20 mL sterile PBS, counted using a cell counter (Olympus cell counter model R1), and plated in 96-well plates at an optimal density of 6000 cells/well in the designated culture media. The cells were left to adhere overnight before treatment the following day, when the culture medium was removed and replaced with the treatment medium. All incubations were conducted in triplicate wells and repeated at least three times (n = 3).
(§3) To calculate TMZ IC50 values in each cell line, TMZ was dissolved in DMSO at a stock concentration of 103 mM, which was then diluted into culture medium on the day of use, with the DMSO final concentration always less than 0.1%. The following concentrations of TMZ were used in the experiments: 0.5, 5, 50, 500, 2500, 5000 μM. The media were sterilized for each treatment media with a 0.22 μm filter before they were added to cell cultures. To determine the IC50 values for each cyclotide in each cell type, cyclotides were dissolved into 10% DMSO and then dilutions used to screen cyclotides with a final DMSO concentration of less than 0.1% The following concentrations of cyclotides were used: 0.1, 1, 5, 10 μM. For co-exposure experiments, a simultaneous exposure of cyclotide and TMZ at each respective dose was added to cell cultures (100 μL final volume per well).
(§4) In accordance with the methods developed by Mosmann and colleagues, the MTT assay was conducted using the Roche cell proliferation kit (Cat. No. 11465007001). Briefly, cells that are active can cleave MTT. The MTT is originally a yellow tetrazolium salt that undergoes a colorimetric change to purple formazan crystals, and the change in absorbance can be measured as an indicator of cell viability/proliferation. For these experiments, cells were plated into 96-well flat-bottom plates, as described in the cell culture above. […] To align with our previous work, experiments were conducted with a 72 h time frame for cytotoxicity evaluation.
(§5) After a 72 h incubation period, plates were removed from the incubator and 10 µL of MTT was added to each well. The plates were returned to the incubator for an additional 4 h, after which 100 µL of a solubilization solution was added to each well. The plates were returned to incubation overnight, and the next day absorbances were read at 570 nm on a Molecular Devices FlexStation 3 using SoftMax Pro Microplate Data Acquisition and Analysis Software (version 7.0.2).

[3] = tested on: U-87 MG human glioblastoma cells; assay: cells; conditions: read-out: IC50 (μM) ± S.D.; U-87 MG, MTT, 72 h, 6000 cells/well, cyclotides 0.1-10 μM, TMZ 0.5-5000 μM, best fit nonlinear regression, triplicate wells, n = 3
Protocol: as §1, §2, §3, §4, §5

[4] = tested on: U-87 MG glioblastoma cells; assay: MTT co-exposure of synthetic Kalata B1 and TMZ in U-87 MG cells; format: cell-based, human; conditions: TMZ 100 µM + synthetic Kalata B1 0.5 µM, MTT 72 h, ANOVA/Tukey
Protocol: To calculate TMZ IC50 values in each cell line, TMZ was dissolved in DMSO at a stock concentration of 103 mM, which was then diluted into culture medium on the day of use, with the DMSO final concentration always less than 0.1%. The following concentrations of TMZ were used in the experiments: 0.5, 5, 50, 500, 2500, 5000 μM. The media were sterilized for each treatment media with a 0.22 μm filter before they were added to cell cultures. […]
In accordance with the methods developed by Mosmann and colleagues, the MTT assay was conducted using the Roche cell proliferation kit (Cat. No. 11465007001). […] The MTT is originally a yellow tetrazolium salt that undergoes a colorimetric change to purple formazan crystals, and the change in absorbance can be measured as an indicator of cell viability/proliferation. […]
Figure 8 Synthetic Kalata B1 increased TMZ-induced cell death in U-87 MG glioblastoma cultures. To determine if synthetic Kalata B1 (K) enhances TMZ (T)-induced cell death in U-87 MG cells, MTT was measured after incubating the cell cultures with concentrations of K (0.5, 1.0, 2.0, and 4.0 μM) and T (100, 200, 400, and 800 μM) both alone and when co-exposed to synthetic Kalata B1 and TMZ as illustrated in panels (A–M). […] Cell viability was measured using MTT and expressed as a percentage of control cultures (culture medium with DMSO only). […]

glioblastoma cells = conditions: cytotoxicity; ref Our previous research; cited from earlier work
U-87 glioblastoma cells = conditions: MTT; cited from earlier work
U-251 glioblastoma cells = conditions: MTT; cited from earlier work
U-87 MG cells = conditions: U-87 MG; cited from earlier work
mice = conditions: cited from earlier work
Text: (§6) The development of an in vivo mouse model is vital, yet it requires expertise, significant finances, and large quantities of the target cyclotide. […] A mouse model of anaplastic large cell lymphoma (ALCL) was developed, and the Kalata B1 mutant, named [T20K] Kalata B1, decreased tumor weight and increased ...

[5] = tested on: primary human brain endothelial cells; conditions: SYTOX green assay; cited from earlier work
Text: Challenges commonly associated with treating cancer can include low drug uptake across the cellular lipid bilayer, the activity of pumps, such as p-glycoprotein, that efflux drugs out of the cell, and the impenetrability of the blood–brain barrier. Our previous research provided supporting evidence that cyclotides such as CyO2 can act as adjuvants in drug-resistant breast cancer cells, whereby cyclotides sensitize human breast adenocarcinoma (MCF-7) and drug-resistant human breast adenocarcinoma (MCF-7/ADR) cells to the FDA-approved anti-cancer drug, doxorubicin. In that case, one ...

interleukin-2 (IL-2) = conditions: cited from earlier work
Text: Although a mechanistic evaluation of Kalata B1 bioactivity was beyond the scope of this research, a brief discussion of the previous mechanistic studies is justified. For instance, Henriques and colleagues provided supporting evidence that cyclotides can target phosphatidylethanolamine (PE)-enriched phospholipids and penetrate the cell via both endocytosis and membrane translocation.

[6] = tested on: anaplastic large cell lymphoma (ALCL); conditions: mouse model of anaplastic large cell lymphoma; cited from earlier work
Text: as §6

## CC(C)C[C@@H]1NC(=O)CNC(=O)[C@H](CC(N)=O)NC(=O)[C@H](CCCNC(=N)N)NC(=O)[C@H]([C@@H](C)O)NC(=O)[C@@H]2CSSC[C@@H]3NC(=O)[C@H]([C@@H](C)O)NC(=O)CNC(=O)CNC(=O)[C@H](C(C)C)NC(=O)[C@@H]4CSSC[C@H](NC(=O)[C@H]([C@@H](C)O)NC(=O)[C@H](CSSC[C@H](NC(=O)[C@H](C(C)C)NC(=O)[C@@H]5CCCN5C1=O)C(=O)NCC(=O)N[C@@H](CCC(=O)O)C(=O)N[C@@H]([C@@H](C)O)C(=O)N4)NC(=O)CNC(=O)[C@@H]1CCCN1C(=O)[C@H]([C@@H](C)O)NC(=O)[C@H](CC(N)=O)NC3=O)C(=O)N[C@@H](CO)C(=O)N[C@@H](Cc1c[nH]c3ccccc13)C(=O)N1CCC[C@H]1C(=O)N[C@@H](C(C)C)C(=O)N2 [Kalata B1 (synthetic), Kalata B1]
[1]; data points of 3 h, 8 h and 24 h, human serum from male AB plasma, 300 µM stock diluted 10 times, UPLC-MS peak area vs control, triplicate, listed as synthetic Kalata B1
  Stability in human serum (in words): remains stable
[1]; human serum isolated from male AB plasma, UPLC-MS
  Time for which the peptide remains stable in human serum: at least 24 h
[2]
  IC50: 2.6 ± 0.24 µM
[3]
  IC50: 5.4 ± 1.06 µM
[4]
  Fold lower TMZ concentration than TMZ IC50 still giving significant cytotoxicity on co-exposure: 16 fold

## Cycloviolacin O2 [CyO2]
Glioblastoma cells
  IC50: 4.5 µM
U-87 glioblastoma cells
  IC50: 0.45 µM
U-251 glioblastoma cells
  IC50: 0.79 µM
U-87 MG cells
  Fold less TMZ required for significant cell death on co-exposure with the cyclotide: 8 fold
mice; mice treated with 1.5 mg/kg in tumor mouse models
  In vivo toxicity at 1.5 mg/kg: no signs of discomfort
mice; mice, single injection 2 mg/kg
  In vivo toxicity, single injection at 2 mg/kg: lethal
[5]
  Membrane disruption: did not produce significant membrane disruption

## [T20K] Kalata B1: a Kalata B1 mutant (cyclo(GLPVCGETCVGGTCNTPGCKCSWPVCTRN); disulfide (positions not given here); ends not checked; also: disulfides, places not given here; UniProt P56254 89-117, looked up, variant T20K)
interleukin-2 (IL-2)
  Effect on IL-2 expression, IL-2 cytokine secretion and IL-2 gene expression: could decrease
[6]
  Anti-tumor effect in ALCL mouse model: decreased tumor weight and increased apoptosis
